As usually defined, the pIC50 is −log10 of the IC50, conventionally taken in molar units. By CC50 is commonly meant the concentration giving 50% cytotoxicity. The inhibition is the share of the control response that was lost under treatment. Read a high inhibition as a response far below the control.

The subject of series [1] is Leishmania donovani. Nature of the series: Antileishmanial activity against Leishmania donovani Bob intracellular amastigotes assessed as parasite growth inhibition incubated for 72 hrs by LDH assay. It is filed as functional, organism-based.
Series [2] relates to Leishmania amazonensis. Nature of the series: Antileishmanial activity against Leishmania amazonensis MHOM/BR/79/Maria intracellular amastigotes infected in mouse J774 macrophages assessed as inhibition of parasite growth incubated for 48 hrs by fluorometric analysis. It is filed as functional, organism-based. Conditions: J774, 48 h.
The test system of series [3] is Leishmania infantum. Nature of the series: Antileishmanial activity against Leishmania infantum MCAN/ES/92/BCN83 intracellular amastigotes infected in mouse J774 macrophages assessed as inhibition of parasite growth incubated for 48 hrs by fluorometric analysis. It is filed as functional, organism-based. Conditions: MCAN/ES/92/BCN83, J774, 48 h.
The subject of series [4] is Leishmania amazonensis. Nature of the series: Antileishmanial activity against promastigote form of Leishmania amazonensis MHOM/BR/79/Maria assessed as inhibition of parasite growth measured after 48 hrs by resazurin staining based fluorescence analysis. The series is classed as functional, organism-based. (Alamar Blue is a resazurin reagent that responds to reducing activity.)

In series [5] the test system is Leishmania infantum. The experiment in a line: Antileishmanial activity against promastigote form of Leishmania infantum MCAN/ES/92/BCN83 assessed as inhibition of parasite growth measured after 48 hrs by resazurin staining based fluorescence analysis. It is filed as functional, organism-based. The note with it: MCAN/ES/92/BCN83, 48 h.
Series [6] in a line: Cytotoxicity against mouse bone marrow-derived macrophage cells assessed as reduction in cell viability measured after 24 hrs by resazurin assay. The series is classed as toxicity, cell-based, BMDM. Conditions: bone marrow-derived macrophages.
Series [7] concerns Leishmania infantum. Nature of the series: Antileishmanial activity against Leishmania infantum MHOM/MA/67/ITMAP263 intracellular amastigotes infected in mouse bone marrow derived macrophage cells assessed as parasite growth inhibition measured after 24 hrs by DAPI staining based microscopic analysis. It is filed as functional, organism-based. Conditions: MHOM/MA/67/ITMAP263, Macrophage.

The target of series [8] is Trypanothione reductase (Leishmania donovani) (UniProt P39050). Nature of the series: Inhibition of Leishmania donovani trypanothione reductase expressed in Escherichia coli BL21(DE3) using TS2 and NADPH as substrate at 100 uM preincubated for 5 mins followed by substrate addition by DTNB-reagent based spectrophotometric method.
The test system of series [9] is Leishmania donovani. Nature of the series: Antileishmanial activity against promastigote form of Leishmania donovani MHOM/IN/80/Dd8 transfected with firefly luciferase gene assessed as parasite growth inhibition incubated for 96 hrs by Steady Glo reagent based luminescence assay. It is filed as functional, organism-based. The note with it: MHOM/IN/80/Dd8, 96 h.
Series [10] has as its system Leishmania donovani. Nature of the series: Antileishmanial activity against Leishmania donovani MHOM/IN/80/Dd8 intracellular amastigotes transfected with firefly luciferase gene infected in mouse J774.A1 cells assessed as parasite growth inhibition incubated for 96 hrs by Steady Glo reagent based luminescence assay. It is filed as functional, organism-based. Conditions: MHOM/IN/80/Dd8, J774.A1, 96 h.

pIC50: −log10 of the molar value.

Trypanothione reductase (Leishmania donovani), sequence (P39050 whole entry): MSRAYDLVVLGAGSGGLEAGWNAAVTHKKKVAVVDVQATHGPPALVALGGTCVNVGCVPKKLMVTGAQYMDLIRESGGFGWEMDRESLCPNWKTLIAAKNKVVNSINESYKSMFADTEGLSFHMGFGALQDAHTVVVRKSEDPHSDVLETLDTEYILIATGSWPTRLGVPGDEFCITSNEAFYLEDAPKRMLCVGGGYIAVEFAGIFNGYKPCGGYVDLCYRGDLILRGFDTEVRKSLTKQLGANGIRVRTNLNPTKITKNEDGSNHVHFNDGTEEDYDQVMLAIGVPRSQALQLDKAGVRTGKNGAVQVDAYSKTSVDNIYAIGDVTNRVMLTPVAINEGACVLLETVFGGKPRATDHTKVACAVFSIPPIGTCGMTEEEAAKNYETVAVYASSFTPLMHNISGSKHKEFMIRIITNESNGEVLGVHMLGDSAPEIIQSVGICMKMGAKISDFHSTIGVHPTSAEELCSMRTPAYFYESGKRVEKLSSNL

Consider `COC(=O)C(N)Cc1c[nH]c2ccccc12` (stereo unspecified), for which the pIC50 in series [1] was 4.74.
On to `FC(F)(F)c1nc2cc(Cl)c(Cl)cc2[nH]1`, for which the pIC50 in series [2] is 5.05; in series [3], 4.80; in series [4], 5.39; in [5] it was 5.06.
For `CCCCCCCCNCc1ccc2c(c1)C(=O)CC(C)(C)O2`, the CC50 at 24 h in [6] turned out to be 40.2 µM. The pIC50 in series [7] is 4.61.
Regarding `C=C(C1c2[nH]c3ccccc3c2CCN1C(=O)OC(C)(C)C)N(CC(=O)NC(C)(C)C)Cc1ccc(C)cc1` (stereo unspecified), in [8], the inhibition came to 53%. The pIC50 in [9] is 7.22.
`CCOC(=O)c1cc2c([nH]c3ccccc32)c(C(C(=O)NC(C)(C)C)N(Cc2ccc(CC)cc2)C(=O)c2ccccc2)n1` (stereo unspecified): the inhibition in [8] amounted to 87%. The pIC50 in series [10] is 5.61.

(Values after ChEMBL document CHEMBL5096192, “Recent advancements in anti-leishmanial research: Synthetic strategies and structural activity relationships” (Eur J Med Chem, 2021).)
